Source: patent US4452778A, “Synergistic antibacterial compositions and method of treatment of infections caused by multiple antibiotic-resistant organisms” (Eli Lilly and Company, priority 1981, dated 1984)
Values after ≈ are worked out from the molar mass of the structure shown. Where a name gives a salt, the structure may show the parent alone. Read-outs that look alike come from different tables or passages of the source.

Experiments:
Pseudomonas maltophilia = experiment: Checkerboard broth dilution synergy study (mic); format: cell-based; conditions: Table III; for MIC: Stenotrophomonas maltophilia, read-out: mic, drug alone
Klebsiella pneumoniae = experiment: Checkerboard broth dilution synergy study (mic); format: cell-based; conditions: Table III; for MIC: Klebsiella pneumoniae, read-out: mic, drug alone
Proteus rettgeri = experiment: Checkerboard broth dilution synergy study (mic); format: cell-based; conditions: Table III; for MIC: Providencia rettgeri, read-out: mic, drug alone
Acinetobacter sp. = experiment: Checkerboard broth dilution synergy study (mic); format: cell-based; conditions: Table III; for MIC: Acinetobacter, read-out: mic, drug alone
E. cloacae = experiment: Checkerboard broth dilution synergy study (mic); format: cell-based; conditions: Table III; for MIC: Enterobacter cloacae, read-out: mic, drug alone
Serratia marcescens = experiment: Checkerboard broth dilution synergy study (mic); format: cell-based; conditions: Table III; for MIC: Serratia marcescens, read-out: mic, drug alone
Pseudomonas pseudomallei = experiment: microbe, parasite or virus in culture; format: cell-based
[1] = cited from earlier work; for average peak serum concentration: 1 hour
Pseudomonas aeruginosa = experiment: Checkerboard broth dilution synergy study (mic); format: cell-based; conditions: Table III; for MIC: Pseudomonas aeruginosa, read-out: mic, drug alone
[2] = 1 mg/kg intramuscular; cited from earlier work

NCC[C@H](O)C(=O)N[C@@H]1C[C@H](N)[C@@H](O[C@H]2O[C@H](CN)[C@@H](O)[C@H](O)[C@H]2O)[C@H](O)[C@H]1O[C@H]1O[C@H](CO)[C@@H](O)[C@H](N)[C@H]1O [amikacin]
MIC (Pseudomonas maltophilia; isolate 10): > 64 µg/mL | MIC (Pseudomonas maltophilia; isolate 505): > 64 µg/mL | mic of each drug in combination I + A (Pseudomonas maltophilia; isolate 10): < 0.5 µg/mL | mic of each drug in combination I + A (Pseudomonas maltophilia; isolate 505): 1 µg/mL | MIC (Klebsiella pneumoniae; isolate 130): 4 µg/mL | MIC (Klebsiella pneumoniae; isolate 214-1): 8 µg/mL | MIC (Klebsiella pneumoniae; isolate 463): 2 µg/mL | MIC (Klebsiella pneumoniae; isolate 938): 4 µg/mL | MIC (Klebsiella pneumoniae; isolate 1231): 4 µg/mL | mic of each drug in combination I + A (Klebsiella pneumoniae; isolate 130): < 0.5 µg/mL | mic of each drug in combination I + A (Klebsiella pneumoniae; isolate 214-1): < 0.5 µg/mL | mic of each drug in combination I + A (Klebsiella pneumoniae; isolate 463): < 0.5 µg/mL | mic of each drug in combination I + A (Klebsiella pneumoniae; isolate 938): < 0.5 µg/mL | mic of each drug in combination I + A (Klebsiella pneumoniae; isolate 1231): 2 µg/mL | MIC (Proteus rettgeri; isolate 53): 8 µg/mL | MIC (Proteus rettgeri; isolate 136-1): 4 µg/mL | MIC (Proteus rettgeri; isolate 768): 16 µg/mL | MIC (Proteus rettgeri; isolate 997): 8 µg/mL | MIC (Proteus rettgeri; isolate 1422): 4 µg/mL | mic of each drug in combination I + A (Proteus rettgeri; isolate 53): < 0.5 µg/mL | mic of each drug in combination I + A (Proteus rettgeri; isolate 136-1): 1 µg/mL | mic of each drug in combination I + A (Proteus rettgeri; isolate 768): < 0.5 µg/mL | mic of each drug in combination I + A (Proteus rettgeri; isolate 997): < 0.5 µg/mL | mic of each drug in combination I + A (Proteus rettgeri; isolate 1422): 8 µg/mL | MIC (Acinetobacter sp.; isolate 28-1): 8 µg/mL | MIC (Acinetobacter sp.; isolate 28-2): 4 µg/mL | MIC (Acinetobacter sp.; isolate 106): 2 µg/mL | MIC (Acinetobacter sp.; isolate 107): 8 µg/mL | MIC (Acinetobacter sp.; isolate 109): 4 µg/mL | mic of each drug in combination I + A (Acinetobacter sp.; isolate 28-1): 8 µg/mL | mic of each drug in combination I + A (Acinetobacter sp.; isolate 28-2): < 0.5 µg/mL | mic of each drug in combination I + A (Acinetobacter sp.; isolate 106): < 0.5 µg/mL | mic of each drug in combination I + A (Acinetobacter sp.; isolate 107): 8 µg/mL | mic of each drug in combination I + A (Acinetobacter sp.; isolate 109): < 0.5 µg/mL | MIC (E. cloacae; isolate 228): 2 µg/mL | MIC (E. cloacae; isolate 1253): 1 µg/mL | MIC (E. cloacae; isolate 1296): 4 µg/mL | MIC (E. cloacae; isolate 1415): 8 µg/mL | MIC (E. cloacae; isolate McQuinn): 32 µg/mL | mic of each drug in combination I + A (E. cloacae; isolate 228): < 0.5 µg/mL | mic of each drug in combination I + A (E. cloacae; isolate 1253): < 0.5 µg/mL | mic of each drug in combination I + A (E. cloacae; isolate 1296): 0.5 µg/mL | mic of each drug in combination I + A (E. cloacae; isolate 1415): < 0.5 µg/mL | mic of each drug in combination I + A (E. cloacae; isolate McQuinn): 2 µg/mL | MIC (Serratia marcescens; isolate 463-2): 1 µg/mL | MIC (Serratia marcescens; isolate 606): 1 µg/mL | MIC (Serratia marcescens; isolate 1414): 8 µg/mL | MIC (Serratia marcescens; isolate B377): 2 µg/mL | MIC (Serratia marcescens; isolate Ziegler): 4 µg/mL | mic of each drug in combination I + A (Serratia marcescens; isolate 463-2): < 0.5 µg/mL | mic of each drug in combination I + A (Serratia marcescens; isolate 606): < 0.5 µg/mL | mic of each drug in combination I + A (Serratia marcescens; isolate 1414): < 0.5 µg/mL | mic of each drug in combination I + A (Serratia marcescens; isolate B377): < 0.5 µg/mL | mic of each drug in combination I + A (Serratia marcescens; isolate Ziegler): 2 µg/mL | MIC (Pseudomonas pseudomallei; Burkholderia pseudomallei, read-out: mic, drug alone): 32 µg/mL (≈ 54.6 µM) | mic of each drug in combination I + A (Pseudomonas pseudomallei; Table III, isolate not named): 8 µg/mL | average peak serum concentration ([1]; 250 mg (3.7 mg/kg) intramuscular): about 12 mcg/ml | serum level ([1]; 250 mg (3.7 mg/kg) intramuscular, 10 hours): about 0.3 mcg/ml | average peak serum concentration ([1]; 375 mg (5 mg/kg) intramuscular): ~16 µg/mL | serum level ([1]; 375 mg (5 mg/kg) intramuscular, 10 hours): ~1200 ng/mL | serum level ([1]; 500 mg (7.5 mg/kg) infusion over 30 minutes, 30 minutes post-infusion): 24000 ng/mL | serum level ([1]; 500 mg (7.5 mg/kg) infusion over 30 minutes, 1 hour post-infusion): 18000 ng/mL | serum level ([1]; 500 mg (7.5 mg/kg) infusion over 30 minutes, 10 hours post-infusion): 750 ng/mL | mean peak serum concentration ([1]; 500 mg (7.5 mg/kg) infusion over 30 minutes, end of infusion): 38 µg/mL | average peak serum concentration ([1]; 500 mg (7.5 mg/kg) intramuscular): ~21 µg/mL | serum level ([1]; 500 mg (7.5 mg/kg) intramuscular, 10 hours): ~2100 ng/mL | MIC (Pseudomonas aeruginosa; isolate 316-2): 16 µg/mL | MIC (Pseudomonas aeruginosa; isolate 362): 16 µg/mL | MIC (Pseudomonas aeruginosa; isolate 363): 32 µg/mL | MIC (Pseudomonas aeruginosa; isolate 610): 1 µg/mL | MIC (Pseudomonas aeruginosa; isolate Brownlee): 16 µg/mL | mic of each drug in combination I + A (Pseudomonas aeruginosa; isolate 316-2): 2 µg/mL | mic of each drug in combination I + A (Pseudomonas aeruginosa; isolate 362): 2 µg/mL | mic of each drug in combination I + A (Pseudomonas aeruginosa; isolate 363): 2 µg/mL | mic of each drug in combination I + A (Pseudomonas aeruginosa; isolate 610): 1 µg/mL | mic of each drug in combination I + A (Pseudomonas aeruginosa; isolate Brownlee): 4 µg/mL

NC[C@H]1O[C@H](O[C@H]2[C@H](O)[C@@H](O[C@H]3O[C@H](CO)[C@@H](O)[C@H](N)[C@H]3O)[C@H](N)C[C@@H]2N)[C@H](N)C[C@@H]1O [tobramycin sulfate]
maximum serum concentrations [2]: about 4 mcg/ml
